Experimental data: patent US10681909B2, “Herbicidal triazoles” (FMC Corporation, priority 2014, dated 2020)

Columns and labels:
[1] = system: pigweed; test: Test A preemergence; format: in vivo, Amaranthus retroflexus; details: 0 to 100 scale (0 no effect, 100 complete control)
Outline: (§1)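 Pre- and postemergence spray tests in a loam soil–sand mixture: seeded soil received a directed spray, while established seedlings 2–10 cm high at the one- to two-leaf stage were treated over the top. Compounds were carried in non-phytotoxic solvent with surfactant.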

[2] = system: barnyardgrass; test: Test A postemergence; format: in vivo, Echinochloa crus-galli; details: 0 to 100 scale (0 no effect, 100 complete control), approx. 10 d
Outline: as §1

[3] = system: foxtail, giant; test: Test A postemergence; format: in vivo, Setaria faberii; details: 0 to 100 scale (0 no effect, 100 complete control), approx. 10 d
Outline: as §1

[4] = system: corn; test: Test A postemergence; format: in vivo, Zea mays; details: 0 to 100 scale (0 no effect, 100 complete control), approx. 10 d
Outline: as §1

[5] = system: rice; test: Test B flooded paddy test; format: in vivo, Oryza sativa; details: 250 g ai/ha, applied to paddy water at 2-leaf stage, visual rating after 13 to 15 d, scale 0 (no effect) to 100 (complete control)
Outline: (§2)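 Pots were flooded to 3 cm above the soil at treatment, and compounds were applied directly into the paddy water. That depth was held throughout. After 13 to 15 d in a greenhouse, plants were rated visually against untreated controls.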

[6] = system: ducksalad; test: Test B flooded paddy test; format: in vivo, Heteranthera limosa; details: 250 g ai/ha, applied to paddy water at 2-leaf stage, visual rating after 13 to 15 d, scale 0 (no effect) to 100 (complete control)
Outline: as §2

[7] = system: blackgrass; test: Test C postemergence; format: in vivo, Alopecurus myosuroides
Outline: (§3)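 Pre: seeded into loam/sand, sprayed same time. Post: plants in peat moss–vermiculite mix with starter nutrients and dolomitic limestone, treated at 1- to 4-leaf stage (2 to 18 cm). Formulation: non-phytotoxic solvent blend plus surfactant.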

[8] = system: ryegrass, Italian; test: Test C postemergence; format: in vivo, Lolium multiflorum
Outline: as §3

[9] = system: wheat (winter wheat); test: Test C postemergence; format: in vivo, Triticum aestivum
Outline: as §3

[10] = system: foxtail, giant; test: Test C postemergence; format: in vivo, Setaria faberii
Outline: as §3

[11] = system: johnsongrass; test: Test C postemergence; format: in vivo, Sorghum halepense
Outline: as §3

[12] = system: nutsedge, yellow; test: Test C postemergence; format: in vivo, Cyperus esculentus
Outline: as §3

[13] = system: pigweed; test: Test C postemergence; format: in vivo, Amaranthus retroflexus
Outline: as §3

[14] = system: ragweed; test: Test C postemergence; format: in vivo, Ambrosia elatior
Outline: as §3

[15] = system: barnyardgrass; test: Test C postemergence; format: in vivo, Echinochloa crus-galli
Outline: as §3

[16] = system: oilseed rape; test: Test C postemergence; format: in vivo, Brassica napus
Outline: as §3

[17] = system: velvetleaf; test: Test C postemergence; format: in vivo, Abutilon theophrasti
Outline: as §3

[18] = system: chickweed; test: Test C postemergence; format: in vivo, Stellaria media
Outline: as §3

[19] = system: oat, wild; test: Test C postemergence; format: in vivo, Avena fatua
Outline: as §3

[20] = system: kochia; test: Test C postemergence; format: in vivo, Kochia scoparia
Outline: as §3

COc1nc(-c2ccccc2)nn1Cc1ccnc(C(F)(F)F)c1 [Compound 32]
Plant response rating, Pigweed ([1]; 125 g ai/ha): 100 | Plant response rating, Pigweed ([1]; 500 g ai/ha, approx. 10 d): 100 | Plant response rating, Barnyardgrass ([2]; 125 g ai/ha): 30 | Plant response rating, Barnyardgrass ([2]; 500 g ai/ha): 60 | Plant response rating, Foxtail, Giant ([3]; 125 g ai/ha): 60 | Plant response rating, Foxtail, Giant ([3]; 500 g ai/ha): 90 | Plant response rating, Corn ([4]; 125 g ai/ha): 10 | Plant response rating, Corn ([4]; 500 g ai/ha): 30 | Plant response rating, Rice, Flood [5]: 0 | Plant response rating, Ducksalad, Flood [6]: 30 | Plant response rating (scale of 0 to 100 where 0 is no effect and 100 is complete control) ([7]; 31 g ai/ha): 5 | Plant response rating (scale of 0 to 100 where 0 is no effect and 100 is complete control) ([7]; 62 g ai/ha): 5 | Plant response rating (scale of 0 to 100 where 0 is no effect and 100 is complete control) ([7]; 125 g ai/ha): 5 | Plant response rating (scale of 0 to 100 where 0 is no effect and 100 is complete control) ([7]; 250 g ai/ha): 15 | Plant response rating (scale of 0 to 100 where 0 is no effect and 100 is complete control) ([8]; 31 g ai/ha): 0 | Plant response rating (scale of 0 to 100 where 0 is no effect and 100 is complete control) ([8]; 62 g ai/ha): 0 | Plant response rating (scale of 0 to 100 where 0 is no effect and 100 is complete control) ([8]; 125 g ai/ha): 0 | Plant response rating (scale of 0 to 100 where 0 is no effect and 100 is complete control) ([8]; 250 g ai/ha): 10 | Plant response rating (scale of 0 to 100 where 0 is no effect and 100 is complete control) ([9]; 31 g ai/ha): 0 | Plant response rating (scale of 0 to 100 where 0 is no effect and 100 is complete control) ([9]; 62 g ai/ha): 0 | Plant response rating (scale of 0 to 100 where 0 is no effect and 100 is complete control) ([9]; 125 g ai/ha): 0 | Plant response rating (scale of 0 to 100 where 0 is no effect and 100 is complete control) ([9]; 250 g ai/ha): 0 | Plant response rating (scale of 0 to 100 where 0 is no effect and 100 is complete control) ([10]; 31 g ai/ha): 10 | Plant response rating (scale of 0 to 100 where 0 is no effect and 100 is complete control) ([10]; 62 g ai/ha): 10 | Plant response rating (scale of 0 to 100 where 0 is no effect and 100 is complete control) ([10]; 125 g ai/ha): 10 | Plant response rating (scale of 0 to 100 where 0 is no effect and 100 is complete control) ([10]; 250 g ai/ha): 10 | Plant response rating (scale of 0 to 100 where 0 is no effect and 100 is complete control) ([11]; 31 g ai/ha): 10 | Plant response rating (scale of 0 to 100 where 0 is no effect and 100 is complete control) ([11]; 62 g ai/ha): 10 | Plant response rating (scale of 0 to 100 where 0 is no effect and 100 is complete control) ([11]; 125 g ai/ha): 10 | Plant response rating (scale of 0 to 100 where 0 is no effect and 100 is complete control) ([11]; 250 g ai/ha): 10 | Plant response rating (scale of 0 to 100 where 0 is no effect and 100 is complete control) ([12]; 31 g ai/ha): 10 | Plant response rating (scale of 0 to 100 where 0 is no effect and 100 is complete control) ([12]; 62 g ai/ha): 20 | Plant response rating (scale of 0 to 100 where 0 is no effect and 100 is complete control) ([12]; 125 g ai/ha): 10 | Plant response rating (scale of 0 to 100 where 0 is no effect and 100 is complete control) ([12]; 250 g ai/ha): 25 | Plant response rating (scale of 0 to 100 where 0 is no effect and 100 is complete control) ([13]; 31 g ai/ha): 98 | Plant response rating (scale of 0 to 100 where 0 is no effect and 100 is complete control) ([13]; 62 g ai/ha): 95 | Plant response rating (scale of 0 to 100 where 0 is no effect and 100 is complete control) ([13]; 125 g ai/ha): 98 | Plant response rating (scale of 0 to 100 where 0 is no effect and 100 is complete control) ([13]; 250 g ai/ha): 98 | Plant response rating (scale of 0 to 100 where 0 is no effect and 100 is complete control) ([14]; 31 g ai/ha): 35 | Plant response rating (scale of 0 to 100 where 0 is no effect and 100 is complete control) ([14]; 62 g ai/ha): 70 | Plant response rating (scale of 0 to 100 where 0 is no effect and 100 is complete control) ([14]; 125 g ai/ha): 60 | Plant response rating (scale of 0 to 100 where 0 is no effect and 100 is complete control) ([14]; 250 g ai/ha): 60 | Plant response rating (scale of 0 to 100 where 0 is no effect and 100 is complete control) ([15]; 31 g ai/ha): 10 | Plant response rating (scale of 0 to 100 where 0 is no effect and 100 is complete control) ([15]; 62 g ai/ha): 15 | Plant response rating (scale of 0 to 100 where 0 is no effect and 100 is complete control) ([15]; 125 g ai/ha): 20 | Plant response rating (scale of 0 to 100 where 0 is no effect and 100 is complete control) ([15]; 250 g ai/ha): 20 | Plant response rating (scale of 0 to 100 where 0 is no effect and 100 is complete control) ([16]; Oilsee Rape, 250 g ai/ha): 45 | Plant response rating (scale of 0 to 100 where 0 is no effect and 100 is complete control) ([16]; Oilseed Rape, 31 g ai/ha): 20 | Plant response rating (scale of 0 to 100 where 0 is no effect and 100 is complete control) ([16]; Oilseed Rape, 62 g ai/ha): 5 | Plant response rating (scale of 0 to 100 where 0 is no effect and 100 is complete control) ([16]; Oilseed Rape, 125 g ai/ha): 10 | Plant response rating (scale of 0 to 100 where 0 is no effect and 100 is complete control) ([17]; 31 g ai/ha): 15 | Plant response rating (scale of 0 to 100 where 0 is no effect and 100 is complete control) ([17]; 62 g ai/ha): 10 | Plant response rating (scale of 0 to 100 where 0 is no effect and 100 is complete control) ([17]; 125 g ai/ha): 20 | Plant response rating (scale of 0 to 100 where 0 is no effect and 100 is complete control) ([17]; 250 g ai/ha): 20 | Plant response rating (scale of 0 to 100 where 0 is no effect and 100 is complete control) ([18]; 31 g ai/ha): 10 | Plant response rating (scale of 0 to 100 where 0 is no effect and 100 is complete control) ([18]; 62 g ai/ha): 10 | Plant response rating (scale of 0 to 100 where 0 is no effect and 100 is complete control) ([18]; 125 g ai/ha): 55 | Plant response rating (scale of 0 to 100 where 0 is no effect and 100 is complete control) ([18]; 250 g ai/ha): 50 | Plant response rating (scale of 0 to 100 where 0 is no effect and 100 is complete control) ([19]; 31 g ai/ha): 0 | Plant response rating (scale of 0 to 100 where 0 is no effect and 100 is complete control) ([19]; 62 g ai/ha): 5 | Plant response rating (scale of 0 to 100 where 0 is no effect and 100 is complete control) ([19]; 125 g ai/ha): 5 | Plant response rating (scale of 0 to 100 where 0 is no effect and 100 is complete control) ([19]; 250 g ai/ha): 10 | Plant response rating (scale of 0 to 100 where 0 is no effect and 100 is complete control) ([20]; 31 g ai/ha): 80 | Plant response rating (scale of 0 to 100 where 0 is no effect and 100 is complete control) ([20]; 62 g ai/ha): 90 | Plant response rating (scale of 0 to 100 where 0 is no effect and 100 is complete control) ([20]; 125 g ai/ha): 90 | Plant response rating (scale of 0 to 100 where 0 is no effect and 100 is complete control) ([20]; 250 g ai/ha): 90
